Results on 2 compounds are retold here after patent publication US20160280631A1, “ESTER COMPOUNDS INCLUDING TRIESTERS HAVING TERMINAL VICINAL ACYL GROUPS” (BIOSYNTHETIC TECHNOLOGIES, LLC., priority 2015, published 2016).

The nature of the data set: kinematic viscosity (ASTM Method D445-97). It is filed as physicochemical. Conditions: measured at 100° C. The method, then: Except as otherwise described, pour point is measured by ASTM Method D97-96a, cloud point is measured by ASTM Method D2500, viscosity/kinematic viscosity is measured by ASTM Method D445-97, viscosity index is measured by ASTM Method D2270-93 (Reapproved 1998), specific gravity is measured by ASTM Method D4052, flash point is measured by ASTM Method D92, evaporative loss is measured by ASTM Method D5800, vapor pressure is measured by ASTM Method D5191, and acute aqueous toxicity is measured by Organization of Economic Cooperation and Development (OECD) 203.

Take `CCCCC(CC)COC(=O)CCCCCCCCC(COC(C)=O)OC(C)=O` (centres unmarked) [Example 4]: the kinematic viscosity result is “less than 10 cSt”.
Under `CCCCC(CC)COC(=O)CCCCCCCCC(COC(=O)C(C)C)OC(=O)C(C)C` (centres unmarked) [Example 5] stands “less than 10 cSt”.
